Measurements taken from US20090012056A1, “Quinoline Compounds Capable of Binding the Cb2 and/or the 5-Ht6 Receptor” (GLAXO GROUP LIMITED, priority 2005, published 2009).
Counter-ions that a name gives are not always drawn.

These molecules were tested against T1, human cloned 5-HT6 receptors (Homo sapiens, UniProt P50406) (assay: Cyclase assay (cAMP production in membranes of HeLa 5HT6 cells, antagonism of 5-HT)). Conditions: cyclase assay with 5-HT at 4xEC50, read-out: fpKi (functional pKi, antagonist potency) (converted).
T1 construct: expressed in transfected cells; host or cells: HeLa cells (membranes)
T1 sequence (P50406 whole entry): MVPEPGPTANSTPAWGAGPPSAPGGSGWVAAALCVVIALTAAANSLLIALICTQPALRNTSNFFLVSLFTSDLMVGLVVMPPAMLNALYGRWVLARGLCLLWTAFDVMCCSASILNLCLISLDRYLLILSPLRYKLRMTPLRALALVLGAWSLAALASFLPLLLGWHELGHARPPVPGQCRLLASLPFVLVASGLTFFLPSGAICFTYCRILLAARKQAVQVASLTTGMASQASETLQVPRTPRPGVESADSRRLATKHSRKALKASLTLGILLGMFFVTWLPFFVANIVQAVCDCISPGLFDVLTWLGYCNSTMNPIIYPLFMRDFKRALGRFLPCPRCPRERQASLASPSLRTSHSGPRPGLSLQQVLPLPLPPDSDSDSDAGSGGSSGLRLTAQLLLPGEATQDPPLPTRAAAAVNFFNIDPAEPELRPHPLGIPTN
Format: biochemical
Procedure: 0.5 μl of test compound in 100% dimethylsulfoxide (DMSO) was added to a white, solid 384 well assay plate (for dose response measurements the top of the concentration range is 7.5 μM final). 10 μl of washed membranes of HeLa 5HT6 cells (for preparation see WO 98/27081) in basic buffer (50 mM HEPES pH 7.4 (KOH), 1 mM MgCl2, 100 mM NaCl, 1 μl/ml 3-isobutyl-1-methylxanthine (IBMX) (Sigma-Aldrich)) was added to all wells followed by 10 μl 2×ATP buffer (100 μl/ml ATP and 1 μl/ml 3-Isobutyl-1-methylxanthine (IBMX) (Sigma-Aldrich)) with 5-HT (at a concentration equivalent to a dose response of 4×EC50). The resultant mixture was then incubated at room temperature for 30-45 minutes to allow cAMP production.
cAMP production was then measured using the DiscoveRx™ HitHunter™ chemiluminescence cAMP assay kit (DiscoveRx Corporation, 42501 Albrae Street, Fremont, Calif. 94538; Product Code: 90-0004L) or any other suitable cAMP measurement assay.
IC50 values were estimated from arbitrary designated unit (ADU) measurements from a Perkin Elmer Viewlux instrument using a four parameter logistic curve fit within EXCEL (Bowen, W. P. and Jerman, J. C. (1995), Nonlinear regression using spreadsheets. Trends in Pharmacol. Sci., 16, 413-417). Functional Ki values were calculated using the method of Cheng, Y. C. and Prussof, W. H. (Biochemical Pharmacol (1973) 22 3099-3108). pIC50 and fpKi are the negative log 10 of the molar IC50 and functional Ki respectively.

| Ki [µM] | SMILES |
| --- | --- |
| < 0.1 | CN1CCN(Cc2cccc3cc(S(=O)(=O)c4ccccc4)cnc23)CC1 [Example 3, 8-[(4-Methyl-1-piperazinyl)methyl]-3-(phenylsulfonyl)quinoline] |
| > 1 | O=S(=O)(c1ccccc1)c1cnc2c(CN3CCCC(F)(F)C3)cccc2c1 [Example 27, 8-[(3,3-Difluoropiperidin-1-yl)methyl]-3-(phenylsulfonyl)quinoline hydrochloride] |
| < 0.1 | CC(C)NCc1cccc2cc(S(=O)(=O)c3ccccc3)cnc12 [Example 25, N-{[3-(phenylsulfonyl)-8-quinolinyl]methyl}-2-propanamine hydrochloride] |
| < 0.1 | O=S(=O)(c1ccc(F)cc1)c1cnc2c(CN3CCCC3)cccc2c1 [Example 23, 3-[(4-Fluorophenyl)sulfonyl]-8-(1-pyrrolidinylmethyl)quinoline hydrochloride] |
| < 0.1 | CC(c1cccc2cc(S(=O)(=O)c3ccccc3)cnc12)N1CCCCC1 (stereo not shown) [Example 17, 3-(phenylsulfonyl)-8-(1-piperidin-1-ylethyl)quinoline] |
| < 0.1 | CN(C)CCCc1cccc2cc(S(=O)(=O)c3ccccc3)cnc12 [Example 15, N,N-Dimethyl-3-[3-(phenylsulfonyl)-8-quinolinyl]-1-propanamine] |
| < 0.1 | O=S(=O)(c1ccccc1)c1cnc2c(CCCN3CCOCC3)cccc2c1 [Example 14] |
| < 0.1 | O=S(=O)(c1ccccc1)c1cnc2c(CCN3CCCC3)cccc2c1 [Example 10, 3-(Phenylsulfonyl)-8-[2-(1-pyrrolidinyl)ethylquinoline hydrochloride] |
| ≤ 1 | CC(C)(c1cccc2cc(S(=O)(=O)c3ccccc3)cnc12)N1CCCC1 [Example 22, 8-(1-Methyl-1-pyrrolidin-1-ylethyl)-3-(phenylsulfonyl)quinoline hydrochloride] |
| < 0.1 | O=S(=O)(c1ccccc1)c1cnc2c(CCCN3CCCC3)cccc2c1 [Example 12, 3-(Phenylsulfonyl)-8-[3-(1-pyrrolidinyl)propyl]quinoline hydrochloride] |
| < 0.1 | O=S(=O)(c1ccccc1)c1cnc2c(CCCN3CCCCC3)cccc2c1 [Example 13, 3-(Phenylsulfonyl)-8-[3-(1-piperidinyl)propyl]quinoline] |
| < 0.1 | CCN(C)C(C)c1cccc2cc(S(=O)(=O)c3ccccc3)cnc12 (stereo not shown) [Example 21, N-Ethyl-N-methyl-1-[3-(phenylsulfonyl)quinolin-8-yl]ethanamine hydrochloride] |
| < 0.1 | CC(c1cccc2cc(S(=O)(=O)c3ccccc3)cnc12)N1CCCC1 (stereo not shown) [Example 16, 3-(Phenylsulfonyl)-8-(1-pyrrolidin-1-ylethyl)quinoline hydrochloride] |
| ≤ 1 | CC(c1cccc2cc(S(=O)(=O)c3ccccc3)cnc12)N1CCOCC1 (stereo not shown) [Example 18, 8-(1-morpholin-4-ylethyl)-3-(phenylsulfonyl)-quinoline] |
| < 0.1 | CC(c1cccc2cc(S(=O)(=O)c3ccccc3)cnc12)N(C)C (stereo not shown) [Example 19, N,N-dimethyl-1-[3-(phenylsulfonyl)quinolin-8-yl]ethanamine] |
| < 0.1 | O=S(=O)(c1ccccc1)c1cnc2c(CCN3CCCCC3)cccc2c1 [Example 11, 3-(Phenylsulfonyl)-8-[2-(1-piperidiny)ethyl]quinoline hydrochloride] |

These molecules were tested against T2, human cannabinoid CB2 receptor (Homo sapiens, UniProt P34972) (assay: Cannabinoid CB2 receptor agonist activity in yeast cells expressing the human CB2 receptor (FDGlu fluorescence)). Conditions: 24 hours at 30° C., read-out: pEC50 at the CB2 receptor (agonist activity) (converted).
T2 construct: expressed in transfected cells; host or cells: Saccharomyces cerevisiae strain MMY23
T2 sequence (P34972 whole entry): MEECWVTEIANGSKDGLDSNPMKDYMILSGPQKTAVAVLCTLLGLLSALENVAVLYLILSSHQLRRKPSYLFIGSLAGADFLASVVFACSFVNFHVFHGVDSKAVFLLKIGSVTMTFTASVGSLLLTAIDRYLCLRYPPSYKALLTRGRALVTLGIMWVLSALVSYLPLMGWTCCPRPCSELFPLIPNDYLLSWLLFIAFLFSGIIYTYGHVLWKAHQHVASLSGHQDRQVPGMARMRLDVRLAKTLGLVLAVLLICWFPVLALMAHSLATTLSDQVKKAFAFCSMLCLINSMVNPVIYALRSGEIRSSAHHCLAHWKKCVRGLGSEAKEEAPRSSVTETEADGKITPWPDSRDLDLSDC
Format: cell-based
Excerpt: Yeast (Saccharomyces cerevisiae) cells expressing the human cannabinoid CB2 receptor were generated by integration of an expression cassette into the ura3 chromosomal locus of yeast strain MMY23. This cassette consisted of DNA sequence encoding the human CB2 receptor flanked by the yeast GPD promoter to the 5′ end of CB2 and a yeast transcriptional terminator sequence to the 3′ end of CB2. MMY23 expresses a yeast/mammalian chimeric G-protein alpha subunit in which the C-terminal 5 amino acids of Gpa1 are replaced with the C-terminal 5 amino acids of human Gαi1/23 (as described in Brown et al. (2000), Yeast 16:11-22). Cells were grown at 30° C. in liquid Synthetic Complete (SC) yeast media (Guthrie and Fink (1991), Methods in Enzymology, Vol. 194) lacking uracil, tryptophan, adenine and leucine to late logarithmic phase (approximately 6 OD600/ml).
Agonists were prepared as 10 mM solutions in DMSO. EC50 values (the concentration required to produce 50% maximal response) were estimated using 4 fold dilutions of between 3- and 5-fold (BiomekFX, Beckman) into DMSO. Agonist solutions in DMSO (1% final assay volume) were transferred into black microtitre plates from NUNC Greiner (384-well). Cells were suspended at a density of 0.2 OD600/ml in SC media lacking histidine, uracil, tryptophan, adenine and leucine and supplemented with 10 mM 3-aminotriazole, 0.1M sodium phosphate pH 7.0, and 120 μM fluorescein di-β-D-glucopyranoside (FDGlu). This mixture (50 ul per well) was added to agonist in the assay plates (Multidrop 384, Labsystems). After incubation at 30° C. for 24 hours, fluorescence resulting from degradation of FDGlu to fluorescein due to exoglucanase, an endogenous yeast enzyme produced during agonist-stimulated cell growth, was determined using a fluorescence microtitre plate reader (Tecan Spectrofluor or LJL Analyst excitation wavelength: 485 nm; emission wavelength: 535 nm). Fluorescence was plotted against compound concentration and iteratively curve fitted using a four parameter fit to generate a concentration effect value.
Efficacy (Emax) was calculated from the equation
Emax=Max[compound X]−Min[compound X]/Max[HU210]−Min[HU210]×100% • where Max[compound X] and Min[compound X] are the fitted maximum and minimum respectively from the concentration effect curve for compound X, and Max[HU210] and Min[HU210] are the fitted maximum and minimum respectively from the concentration effect curve for (6aR,10aR)-3-(1,1′-Dimethylheptyl)-6a,7,10,10a-tetrahydro-1-hydroxy-6,6-dimethyl-6H-dibenzo[b,d]pyran-9-methanol (HU210; available from Tocris). Equieffective molar ratio (EMR) values were calculated from the equation
EMR=EC50[compound X]/EC50[HU210] • Where EC50 [compound X] is the EC50 of compound X and EC50 [HU210] is the EC50 of HU210. • pEC50 is the negative log of the EC50.

| EC50 [µM] | SMILES |
| --- | --- |
| > 31.6 | CN1CCN(Cc2cccc3cc(S(=O)(=O)c4ccccc4)cnc23)CC1 [Example 3, 8-[(4-Methyl-1-piperazinyl)methyl]-3-(phenylsulfonyl)quinoline] |
| < 1 | O=S(=O)(c1ccccc1)c1cnc2c(CN3CCCC(F)(F)C3)cccc2c1 [Example 27, 8-[(3,3-Difluoropiperidin-1-yl)methyl]-3-(phenylsulfonyl)quinoline hydrochloride] |
| < 1 | CC(C)NCc1cccc2cc(S(=O)(=O)c3ccccc3)cnc12 [Example 25, N-{[3-(phenylsulfonyl)-8-quinolinyl]methyl}-2-propanamine hydrochloride] |
| ≤ 10 | O=S(=O)(c1ccc(F)cc1)c1cnc2c(CN3CCCC3)cccc2c1 [Example 23, 3-[(4-Fluorophenyl)sulfonyl]-8-(1-pyrrolidinylmethyl)quinoline hydrochloride] |
| < 1 | CC(c1cccc2cc(S(=O)(=O)c3ccccc3)cnc12)N1CC(F)(F)C1 (stereo not shown) [Example 35, 8-[1-(3,3-Difluoro-1-azetidinyl)ethyl]-3-(phenylsulfonyl)quinoline] |
| < 1 | O=S(=O)(c1ccc(F)cc1)c1cnc2c(CN3CCCC(F)(F)C3)cccc2c1 [Example 38, 8-[(3,3-Difluoro-1-piperidinyl)methyl]-3-[(4-fluorophenyl)sulfonyl]quinoline hydrochloride] |
| < 1 | O=S(=O)(c1ccc(Cl)cc1)c1cnc2c(CN3CCCC(F)(F)C3)cccc2c1 [Example 40, 3-[(4-Chlorophenyl)sulfonyl]-8-[(3,3-difluoro-1-piperidinyl)methyl]quinolinehydrochloride] |
| ≤ 10 | COc1ccc(S(=O)(=O)c2cnc3c(CN4CCCC(F)(F)C4)cccc3c2)cc1Cl [Example 42, 3-{[3-Chloro-4-(methyloxy)phenyl]sulfonyl}-8-[(3,3-difluoro-1-piperidinyl)methyl]quinolinehydrochloride] |
| < 1 | COc1ccc(S(=O)(=O)c2cnc3c(CN4CCCC(F)(F)C4)cccc3c2)cc1NC(C)=O [Example 43, N-[5-({8-[(3,3-Difluoro-1-piperidinyl)methyl]-3-quinolinyl}sulfonyl)-2-(methyloxy)phenyl]acetamidehydrochloride] |
| < 1 | Cc1ccc(S(=O)(=O)c2cnc3c(CN4CCCC(F)(F)C4)cccc3c2)cc1 [Example 39, 8-[(3,3-Difluoro-1-piperidinyl)methyl]-3-[(4-methylphenyl)sulfonyl]quinoline hydrochloride] |
| < 1 | COc1ccc(S(=O)(=O)c2cnc3c(CN4CCCC(F)(F)C4)cccc3c2)cc1OC [Example 44, 3-{[3,4-Bis(methyloxy)phenyl]sulfonyl}-8-[(3,3-difluoro-1-piperidinyl)methyl]quinolinehydrochloride] |
| < 1 | O=S(=O)(c1ccc(Br)cc1)c1cnc2c(CN3CCCC(F)(F)C3)cccc2c1 [Example 41, 3-[(4-Bromophenyl)sulfonyl]-8-[(3,3-difluoro-1-piperidinyl)methyl]quinolinehydrochloride] |
| < 1 | O=S(=O)(c1ccc2ccccc2c1)c1cnc2c(CN3CCCC(F)(F)C3)cccc2c1 [Example 46, 8-[(3,3-Difluoro-1-piperidinyl)methyl]-3-(2-naphthalenylsulfonyl)quinolinehydrochloride] |
| < 1 | O=S(=O)(c1ccccc1)c1cnc2c(CN3CC(F)(F)C3)cccc2c1 [Example 34, 8-[(3,3-Difluoro-1-azetidinyl)methyl]-3-(phenylsulfonyl)quinoline hydrochloride] |
| < 1 | O=S(=O)(c1ccccc1)c1cnc2c(CN3CCC(F)(F)C3)cccc2c1 [Example 33, 8-[(3,3-Difluoro-1-pyrrolidinyl)methyl]-3-(phenylsulfonyl)quinoline hydrochloride] |
| < 1 | Cc1ccc(S(=O)(=O)c2cnc3c(CN4CCCC(F)(F)C4)cccc3c2)cc1Cl [Example 45, 3-[(3-Chloro-4-methylphenyl)sulfonyl]-8-[(3,3-difluoro-1-piperidinyl)methyl]quinolinehydrochloride] |
| < 1 | CC(c1cccc2cc(S(=O)(=O)c3ccccc3)cnc12)N1CCC(F)(F)C1 (stereo not shown) [Example 36, 8-[1-(3,3-Difluoro-1-pyrrolidinyl)ethyl]-3-(phenylsulfonyl)quinoline] |
| < 1 | CC(c1cccc2cc(S(=O)(=O)c3ccccc3)cnc12)N1CCCC(F)(F)C1 (stereo not shown) [Example 37, 8-[1-(3,3-Difluoro-1-piperidinyl)ethyl]-3-(phenylsulfonyl)quinoline] |
